Source: patent EP0651751B1, “FAMILY OF PORPHIN RING SUBSTANCES, METHOD OF OBTAINING THEM FROM CYANOPHYCEAE, AND APPLICATIONS AS COSMETICS AND AS THERAPEUTIC PRODUCTS” (GENERALE DE PREVENTION ET DE LOISIRS, priority 1992, dated 1994)

Experiments:
[1] = system: collagène fibreux insoluble; experiment: Increase of the resistance of collagen to collagenase (agarose gel, diameter of hydrolysis zones); format: biochemical; settings: product in the gel at 0,025 %; collagénase pancréatique 10 mg/ml (3800 U/ml), 15 h at 37°C, Tris pH 8,8
Procedure: * Accroissement de la résistance du collagène aux effets de la collagénase : - Mise en évidence : On répartit dans quatre boîtes de Pétri de 8 cm de diamètre 20 ml d'une solution à 1 % d'agarose dans du tampon Tris pH 8,8, contenant en suspension 20 mg de collagène fibreux insoluble et 0, 0,1, 0,3 et 0,5 ml d'une solution à 5 % de produit à tester selon les boîtes, soient des concentrations de 0, 0,025 %, 0,075 %, 0,125 %. Comme la plupart des produits à tester ne sont pas solubles dans le tampon, on part d'une solution mère dans du diméthylsulfoxyde (DMSO). Cette répartition se fait à 45°C. Après solidification de l'agarose, on perfore 5 puits de 3 mm de diamètre dans le gel grâce à un emporte-pièce. Dans ces 5 puits, on place 50 µl d'une solution de collagénase pancréatique dans du tampon Tris pH 8,8 à une concentration de 10 mg/ml (3800 U/ml). Les boîtes de Pétri sont incubées 15 heures à 37°C, puis le gel est coloré par une solution à 0,25 % d'acide picrique à 0,25 % pendant 3 min, puis une solution de Rouge Sirius à 0,1 % pendant 5 min. L'excès de coloration est éliminé par lavage à l'eau. - Résultats :
(§1) On évalue l'action enzymatique en mesurant le diamètre des zones d'hydrolyse du collagène fibreux. Le groupe chlorophylle-chlorophyllide est le plus actif, ce qui suggère que la présence de magnésium dans la structure a une grande importance. * Effet d'inhibition de la collagénase : - Mise en évidence : On répartit dans quatre boîtes de Pétri de 8 cm de diamètre 20 ml d'une solution à 1 % d'agarose dans du tampon Tris pH 8,8, contenant en suspension 20 mg de collagène fibreux insoluble. Cette répartition se fait à 45°C. Après solidification de l'agarose, on perfore 5 puits de 3 mm de diamètre dans le gel grâce à un emporte-pièce. Dans ces 5 puits, on place 25 µl d'une solution de collagénase pancréatique dans du tampon Tris pH 8,8 à des concentrations de : 10 mg/ml (3800 U/ml) et 25 µl d'une solution de la substance à tester dans le même tampon à une concentration de 4 %, 3 %, 2 %, 1 % et 0 %. Comme la plupart des produits à doser ne sont pas solubles dans le tampon, on part d'une solution mère dans du diméthylsulfoxyde. Les boîtes de Pétri sont incubées 15 heures à 37°C, puis le gel est coloré par une solution à 0,25 % d'acide picrique à 0,25 % pendant 3 min, puis une solution de Rouge Sirius à 0,1 % pendant 5 min. L'excès de coloration est éliminé par lavage à l'eau. - Résultats : […]

collagénase pancréatique = experiment: Collagenase inhibition (agarose gel diffusion, enzyme and substance together in the well); format: biochemical; settings: 15 h at 37°C
Procedure: as §1

élastase pancréatique = élastase pancréatique (Sus scrofa, UniProt P00772); experiment: Pancreatic elastase inhibition on synthetic substrate N succinyl N ala-ala-ala-p nitroanilide; format: biochemical; settings: 0,5 ml of 0,1 % test solution in DMSO à 50 %, 3 ml total; pH 7,6; OD 410 nm over 3 min
From the text: Dans ce test, les substances les plus performantes sont les mêmes que dans le test précédent (chlorophylle-chlorophyllide); de plus, ces substances présentent un effet de renforcement de la résistance du collagène contre les effets de la collagénase, alors que l'enzyme elle-même est peu atteinte par ces substances. * Inhibition de l'élastase pancréatique : - Mise en évidence : L'activité de l'élastase pancréatique est déterminée sur un substrat synthétique. On constate que les produits décrits ci-dessus ont un effet sur cette enzyme alors que le substrat est un dérivé de peptide de faible poids moléculaire : le N succinyl N ala-ala-ala-p nitroanilide. Solution substrat : solution du substrat ci-dessus à 1 % dans du tampon phosphate pH 7,6. Solution enzymatique : élastase pancréatique à (1000 U/ml) dans le tampon pH 7,6. Solvant DMSO à 50 % dans de l'eau distillée. Solution à tester : substance à tester en solution dans le solvant à 0,1 %. Dans un premier tube à essai (blanc), on place : • 2,2 ml de tampon pH 7,6 • 0,3 ml de solution enzymatique • 0,5 ml de solvant. Dans un deuxième tube à essai (essai), on place : • 1 ml de solution substrat • 1,2 ml de tampon pH 7,6 • 0,3 ml de solution enzymatique • 0,5 ml de solution à tester. Dans un troisième tube à essai, on place : • 1 ml de solution substrat • 1,2 ml de tampon pH 7,6 • 0,3 ml de solution enzymatique • 0,5 ml de solvant. On mesure la D.O. de la solution essai contre la solution blanc à 410 nm. On note la valeur toutes les 30 secondes pendant 3 minutes. On réalise la même mesure pour la solution témoin. L'activité de l'enzyme est définie par la vitesse d'augmentation de D.O. du témoin. L'activité de la solution inhibitrice à tester se définit comme une diminution relative de l'activité de l'enzyme. - Résultats : […]

[2] = system: fibroblastes humains MRC5; experiment: Total protein synthesis by fibroblasts in culture (Coomassie blue, OD 595 nm); format: cell-based; settings: 100 µl per well, MRC5, 28th passage, medium sampled after 48, 72, 96 and 120 h (time not given); for activation at 50 µg/mL: Homo sapiens, read-out: augmentation de la synthèse protéique par rapport au témoin; for augmentation de la synthèse protéique par rapport au témoin: 50 µg/ml
From the text: Dans ce test, qui est un test relatif à une inhibition enzymatique vraie, puisque le substrat est artificiel et de structure assez éloignée des substrats naturels de l'enzyme, on constate que les molécules les plus actives en tant qu'inhibiteurs, sont celles dépourvues de radical phytile; la présence du magnésium n'apparaît pas comme essentielle, pour cette fonction particulière, d'où l'intérêt de compositions comprenant plusieurs des substances actives définies ci-dessus. * Effet des substances décrites sur la synthèse des protéines totales par des fibroblastes en culture (restructuration) : - Mise en évidence : Une étude de cytotoxicité est réalisée au préalable pour déterminer les concentrations maximales de test des différentes substances concernées. Cellules utilisées : fibroblastes humains MRC5, au 28ème passage. Les cellules sont ensemencées sur une plaque à 96 puits à raison de 2.10^5 cellules par puits environ et mises en culture dans du milieu minimum de Eagle (MEM) additionné de 1 % de glutamine 200 mM, 1 % de solution de vitamines, 100 U/ml de pénicilline, 100 U/ml de streptomycine et 2 % de sérum de veau foetal. La solution à tester est ajoutée à raison de 100 µl par puits, à la concentration de 50 µg/ml. Les cellules sont incubées à 37°C sous 5 % d'atmosphères de CO2. On prélève le milieu de culture après 48, 72, 96 et 120 heures de culture. Les protéines totales synthétisées sont déterminées après coloration des surnageants par le bleu de Coomassie et mesure de la D.O. à 595 nm. L'augmentation de la synthèse protéique est mesurée par rapport au témoin (solvant de la substance à tester). - Résultats : […]

[3] = Antiradical effect, chemical method (DPPH, OD 519 nm); settings: 0,15 ml of 2 % solution in methanol; 25°C, 5 min; pH 7; toluene extraction
Procedure: Dans ce test, on constate une relative homogénéité des actions des différentes substances, contrairement aux tests précédents; ici, c'est donc la structure commune qui doit jouer le rôle principal dans cette action. - Mise en évidence par la méthode chimique : Réactif : 1,1-diphényl-2-picrylhydrazyle : 2,5 mg dans 100 ml de méthanol. Solvant des substances antiradicalaires : méthanol. Solution antiradicalaire : 2 % dans du méthanol. Ce produit est un radical libre stable pouvant être dégradé par des substances antiradicalaires. On réalise un blanc pour le témoin et un blanc pour l'essai : Blanc témoin : tampon phosphate pH 7 : 1,5 ml méthanol : 3 ml Témoin : solution réactif : 3 ml tampon phosphate pH 7 : 1,5 ml Blanc essai : tampon phosphate pH 7 : 1,35 ml méthanol : 3,15 ml Essai : solution réactif : 3 ml tampon phosphate pH 7 : 1,35 ml solution d'antiradicalaire : 0,15 ml. On agite à 25°C pendant 5 min. Puis on extrait par 4 ml de toluène pendant 30 secondes. On filtre sur un papier séparateur de phases et on lit la D.O. de la solution de toluène à 519 nm contre la solution de toluène obtenue pour le blanc correspondant. On calcule le pourcentage de réactif disparu. - Résultats : […]

[4] = 25 µl substance solution at 1 % with 25 µl collagénase 10 mg/ml in the well
[5] = 25 µl substance solution at 2 % with 25 µl collagénase 10 mg/ml in the well
[6] = 25 µl substance solution at 3 % with 25 µl collagénase 10 mg/ml in the well
[7] = 25 µl substance solution at 4 % with 25 µl collagénase 10 mg/ml in the well

Sequence of élastase pancréatique (P00772 27-266): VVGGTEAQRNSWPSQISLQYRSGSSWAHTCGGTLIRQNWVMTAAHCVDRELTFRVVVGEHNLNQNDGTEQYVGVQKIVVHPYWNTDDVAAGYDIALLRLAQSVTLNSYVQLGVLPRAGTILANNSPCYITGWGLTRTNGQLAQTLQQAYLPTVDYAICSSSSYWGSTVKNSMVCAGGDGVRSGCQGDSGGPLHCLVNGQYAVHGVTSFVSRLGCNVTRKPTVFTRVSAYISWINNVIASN

| Compound | Accroissement de la résistance du collagène aux effets de la collagénase [1] [%] | Effet d'inhibition de la collagénase (collagénase pancréatique; [4]) [%] | Effet d'inhibition de la collagénase (collagénase pancréatique; [5]) [%] | Effet d'inhibition de la collagénase (collagénase pancréatique; [6]) [%] | Effet d'inhibition de la collagénase (collagénase pancréatique; [7]) [%] | Inhibition de l'élastase pancréatique (diminution relative de l'activité de l'enzyme) (élastase pancréatique) [%] | activation at 50 µg/mL [2] [%] | pourcentage de réactif disparu (méthode chimique) [3] [%] | augmentation de la synthèse protéique par rapport au témoin [2] [%] |
| --- | --- | --- | --- | --- | --- | --- | --- | --- | --- |
| C=CC1=C(C)c2cc3[nH]c(c(CCC(=O)O)c3C)c3c4nc(cc5[nH]c(cc1n2)c(C)c5CC)C(C)=C4C(=O)C3C(=O)OC (centres unmarked) [Phaéophorbide a, didéhydrophaéophorbide a] | 2 | 2 | 2 | 2 | 6 | 17 | 1 | 33 |  |
| C=CC1=C(C)c2cc3[nH]c(c(CCC(=O)OCC=C(C)CCCC(C)CCCC(C)CCCC(C)C)c3C)c3c4nc(cc5[nH]c(cc1n2)c(C)c5CC)C(C)=C4C(=O)C3C(=O)OC (centres unmarked) [Phaéophytine a, didéhydrophaéophytine a] | 0 | 0 | 0 | 0 | 2 | 9 | 4 | 20 |  |
| didéhydrochlorophylle a | 5 | 2 | 3 | 3 | 4 | 12 |  | 84 | 15 |
| didéhydrochlorophyllide a | 3 | 3 | 6 | 8 | 9 | 28 |  | 83 | 23 |
